Results on 17 molecules are retold here after patent publication EP1295874A2, “Retroviral protease inhibiting compounds” (Abbott Laboratories, priority 1995, dated 1997).

One data set concerns HIVIIIB. Kind of data set: Antiviral activity (anti-HIV activity) in MT4 cells, MTT readout. The following applies: Human immunodeficiency virus 1, MT4, 120 h, read-out: IC50 (µM, 0% plasma). Type of data set: cell-based. From the text: (§1) The anti-HIV activity of the compound of the invention can be determined in MT4 cells according to the following procedure. MT4 cells were infected with cell-free supernatant of HIVIIIB (previously frozen with known 50% tissue culture infectious dose (TCID50) at 0.003 multiplicity of infection (MOI) for one hour. After one hour infection, cells were washed twice to remove residual viruses, resuspended in culture media and seeded into 96-well tissue culture plates at 1x10^4 cells per well with various half-log dilutions of compounds. Uninfected cells are included as toxicity and cell controls. RPMI 1640 media (Gibco ) with 10% fetal bovine serum were used as culture media. Various concentrations of human serum (Sigma) 50%, 25% and 12.5% were added to culture media resulting in final concentration of 60%, 35% and 22.5% total serum. All assay plates were incubated in 37 deg. cent. incubator for 5 days. MTT (sigma, 5 mg/ml stock in PBS) was added to all wells at 25 ul per well, incubate for 4 hours. 20%SDS with 0.02 N HCl in water was added at 50 ul per well to lyse cellls. Plates incubated overnight for complete lyses were read on a microtitre plate reader at 570/650 nm wavelengths to determine cell optical density (O.D.). Raw data were analysed for percent inhibition by the following formula: (O.D. test well - O.D. virus control)/(O.D. cell control -O.D. virus control)x100 [formula] The 50% effective concentration (EC50) was calculated by the median effect equation (Chou, 1975,Proc. Int. Cong. Pharmacol. 6th p. 619) to determine the efficacy of compound. The 50% lethal concentration (LC50) was calculated using uninfected MT4 cells.
(§2) Under these conditions, the following data were obtained (n = 4 duplicate determinations: Table 2

Another data set has as its target T1, HIV protease (Human immunodeficiency virus type 1 group M subtype B, UniProt P04585).
T1 construct: HIV protease consists of two identical subunits, each of which has 99 amino acid residues
Kind of data set: Fluorogenic Assay for Screening Inhibitors of HIV Protease. It counts as biochemical. The following applies: read-out: Percent Inhibition; for inhibition at 0.0005 µM: Inhibitor Concentration 0.5 nanomolar. As to the method:
The inhibitory potency of the compound of the invention can be determined by the following method.
The compound of the invention is dissolved in DMSO and a small aliquot further diluted with DMSO to 100 times the final concentration desired for testing. The reaction is carried out in a 6 X 50 mm tube in a total volume of 300 microliters. The final concentrations of the components in the reaction buffer are: 125 mM sodium acetate, 1 M sodium chloride, 5 mM dithiothreitol, 0.5 mg/ml bovine serum albumin, 1.3 µM fluorogenic substrate, 2% (v/v) dimethylsulfoxide, pH 4.5. After addition of inhibitor, the reaction mixture is placed in the fluorometer cell holder and incubated at 30°C for several minutes. The reaction is initiated by the addition of a small aliquot of cold HIV protease. The fluorescence intensity (excitation 340 nm, emmision 490 nM) is recorded as a function of time. The reaction rate is determined for the first six to eight minutes. The observed rate is directly proportional to the moles of substrate cleaved per unit time. The percent inhibition is 100 X (1 - (rate in presence of inhibitor)/(rate in absence of inhibitor)).
Fluorogenic substrate: Dabcyl-Gaba-Ser-Gln-Asn-Tyr-Pro-lle-Val-Gln-EDANS wherein DABCYL = 4-(4-dimethylamino-phenyl)azobenzoic acid, Gaba = γ-aminobutyric acid, and EDANS = 5-((2-aminoethyl)amino)-naphthalene-1-sulfonic acid.

Data set [1] can be described thus: 50% lethal concentration in uninfected MT4 cells (MTT). The following applies: human, read-out: LC50. Type of data set: cell-based.
Excerpt: as §1, §2

What is called IC50 is the concentration that inhibits the measured activity by half. For orientation: inhibition means the share of the control response that was lost under treatment.

Consider `Cc1cccc(C)c1OCC(=O)N[C@@H](Cc1ccccc1)[C@@H](O)C[C@H](Cc1ccccc1)NC(=O)[C@H](C(C)C)N1CCNC(=O)C1=O` [Example 29C, (2S,3S,5S)-2-(2,6-Dimethylphenoxyacetyl)amino-3-hydroxy-5-[2S-(1-piperazin-2,3-dionyl)-3-methylbutanoyl]amino-1,6-diphenylhexane], for which the concentration for half-maximal inhibition (IC50) in the data set on HIVIIIB worked out at 0.427 µM. Also, the inhibition at 0.0005 µM at HIV protease came to 72.6%. In data set [1], the CC50 at 120 h is 56000 nM.
Take `Cc1cccc(C)c1OCC(=O)N[C@@H](Cc1ccccc1)[C@@H](O)C[C@H](Cc1ccccc1)NC(=O)[C@H](C(C)C)N1C(=O)CCC1=O` [Example 18C, (2S,3S,5S)-2-(2,6-Dimethylphenoxyacetyl) amino-3-hydroxy-5-(2S-(1-pyrrolidin-2,5-dionyl)-3-methyl-butanoyl) amino-1,6-diphenylhexane]: in the data set with HIVIIIB, the IC50 was found to be 0.329 µM. The inhibition at 0.0005 µM on HIV protease stood at 57.8%. Besides, the CC50 at 120 h in data set [1] came to 19100 nM.
The corresponding values for `CC(C)(C)[C@@H](C(=O)N[C@@H](Cc1ccccc1)C[C@H](O)[C@H](Cc1ccccc1)NC(=O)OCc1cncs1)N1CCNC1=O` [Example 7B, (2S,3S,5S)-2-(N-((5-Thiazolyl)-methoxycarbonyl)amino)-3-hydroxy-5-(2S-(1-imidazolidin-2-onyl)-3,3-dimethylbutanoyl)amino-1,6-diphenylhexane] are 0.204 µM, 67.1% and more than 100000 nM.
With `Cc1ncnc(C)c1OCC(=O)N[C@@H](Cc1ccccc1)[C@@H](O)C[C@H](Cc1ccccc1)NC(=O)[C@H](C(C)C)N1CCNC1=O` [Example 13B, (2S,3S,5S)-2-(4,6-Dimethylpyrimidin-5-oxy-acetyl) amino-3-hydroxy-5-(2S-(1-imidazolidin-2-onyl)-3-methyl-butanoyl) amino-1,6-diphenylhexane], the inhibition at 0.001 µM at HIV protease (Inhibitor Concentration 1.0 nanomolar) is 56.2%.
On to `Cc1cccc(C)c1OCC(=O)N[C@@H](Cc1ccccc1)[C@@H](O)C[C@H](Cc1ccccc1)NC(=O)[C@H](C(C)C)N1CC=NNC1=O` [Example 30B, (2S,3S,5S)-2-(2,6-Dimethylphenoxyacetyl) amino-3-hydroxy-5[2S-(4-aza-4,5-dehydro-1-pyrimid-2-onyl)-3-methyl-butanoyl]amino-1,6-diphenylhexane], for which the IC50 in the data set with HIVIIIB was determined as 0.003 µM. In addition, the inhibition at 0.0005 µM on HIV protease amounted to 91%. Further, the CC50 at 120 h in data set [1] amounted to 18000 nM.
Regarding `Cc1cccc(C)c1OCC(=O)N[C@@H](Cc1ccccc1)[C@@H](O)C[C@H](Cc1ccccc1)NC(=O)[C@H](C(C)C)N1CCCC1=O` [Example 17C, (2S,3S,5S)-2-(2,6-Dimethylphenoxyacetyl) amino-3-hydroxy-5-(2S-(1-pyrrolidin-2-onyl)-3-methyl-butanoyl) amino-1,6-diphenylhexane], in the data set with HIVIIIB, the IC50 came to 0.051 µM. At HIV protease, the inhibition at 0.0005 µM stood at 87.2%. Also, in data set [1], the CC50 at 120 h amounted to 19000 nM.
The corresponding values for `Cc1cc(C)c(OCC(=O)N[C@@H](Cc2ccccc2)[C@@H](O)C[C@H](Cc2ccccc2)NC(=O)[C@H](C(C)C)N2CCNC2=O)c(C)c1` [Example 11B, (2S,3S,5S)-2-(2,4,6-Trimethylphenoxyacetyl) amino-3-hydroxy-5-(2S-(1-imidazolidin-2-onyl)-3-methylbutanoyl) amino-1,6-diphenylhexane] are 0.19 µM, 91.1% and 18200 nM.
The like results for `Cc1cccc(C)c1OCC(=O)N[C@@H](Cc1ccccc1)[C@@H](O)C[C@H](Cc1ccccc1)NC(=O)[C@H](C(C)C)N1CCNC1=S` [Example 9B, (2S,3S,5S)-2-(2,6-Dimethylphenoxyacetyl)amino-3-hydroxy-5-(2S-(1-imidazolidin-2-thionyl)-3-methylbutanoyl)amino-1,6-diphenylhexane] were, in that order, 0.272 µM, 62.6% and 19300 nM.
The like results for `Cc1cccc(C)c1OCC(=O)N[C@@H](Cc1ccccc1)[C@@H](O)C[C@H](Cc1ccccc1)NC(=O)[C@@H](N1CCNC1=O)C(C)(C)C` [Example 8] were, in that order, 0.019 µM, 55.6% and 17800 nM.
Turning to `Cc1ccnc(C)c1OCC(=O)N[C@@H](Cc1ccccc1)[C@@H](O)C[C@H](Cc1ccccc1)NC(=O)[C@H](C(C)C)N1CCNC1=O` [Example 15, (2S,3S,5S)-2-(2,4-Dimethyl-pyridin-3-oxy-acetyl) amino-3-hydroxy-5-(2S-(1-imidazolidin-2-onyl)-3-methyl-butanoyl) amino-1,6-diphenylhexane], the IC50 with HIVIIIB was determined as 0.119 µM. The inhibition at 0.0005 µM on HIV protease was determined as 48%. Further, the CC50 at 120 h in data set [1] is more than 100000 nM.
For the molecule `CC(C)[C@@H](C(=O)N[C@@H](Cc1ccccc1)C[C@H](O)[C@H](Cc1ccccc1)NC(=O)O[C@@H]1CCS(=O)(=O)[C@@H]1C(C)C)N1CCCNC1=O` [Example 22E, (2S,3S,5S)-2-(cis(±)-1,1-dioxo-2-isopropyl-3-tetrahydrothiophenoxy)amino-3-hydroxy-5-(2S-(1-tetrahydropyrimid-2-onyl)-3-methylbutanoyl)amino-1,6-diphenylhexane], the inhibition at 0.0005 µM on HIV protease amounted to 71.8%.
Same read-out and setting: the figure for `Cc1cccc(C)c1OCC(=O)N[C@@H](Cc1ccccc1)[C@@H](O)C[C@H](Cc1ccccc1)NC(=O)[C@H](C(C)C)n1ccc(=O)[nH]c1=O` [Example 23C, (2S,3S,5S)-2-(2,6-Dimethylphenoxyacetyl) amino-3-hydroxy-5-(2S-(1-dihydropyrimid-2,4-dionyl)-3-methyl-butanoyl) amino-1,6-diphenylhexane] is 86%.
Regarding `Cc1cccc(C)c1CCC(=O)N[C@@H](Cc1ccccc1)[C@@H](O)C[C@H](Cc1ccccc1)NC(=O)[C@H](C(C)C)N1CCCNC1=O` [Example 20D, (2S,3S,5S)-2-(3-(2,6-Dimethylphenyl)propanoyl) amino-3-hydroxy-5-(2S-(1-tetrahydropyrimidin-2-onyl)-3-methyl-butanoyl) amino-1,6-diphenylhexane], the IC50 with HIVIIIB was 0.283 µM. Also, the CC50 at 120 h in data set [1] is 24100 nM.
Turning to `CC(C)[C@@H](C(=O)N[C@@H](Cc1ccccc1)C[C@H](O)[C@H](Cc1ccccc1)NC(=O)O[C@H]1CO[C@H]2OCC[C@H]21)N1CCN(C)C1=O` [Example 4F, (2S,3S,5S)-2-[(3R, 3aS, 6aR)-Bis-tetrahydrofuranyloxy] amino-3-hydroxy-5-[2S-(3-methyl-1-imidazolidin-2-onyl)-3-methylbutanoyl] amino-1,6-diphenylhexane], the IC50 in the data set with HIVIIIB was 0.101 µM. The inhibition at 0.0005 µM at HIV protease came out at 49.7%. Further, the CC50 at 120 h in data set [1] was more than 100000 nM.
The corresponding values for `Cc1cccc(C)c1OCC(=O)N[C@@H](Cc1ccccc1)[C@@H](O)C[C@H](Cc1ccccc1)NC(=O)[C@H](C(C)C)N1CCNNC1=O` [Example 26H, (2S,3S,5S)-2-(2,6-Dimethylphenoxyacetyl) amino-3-hydroxy-5[2S-(4-aza-1-tetrahydro-pyrimid-2-onyl)-3-methyl-butanoyl]amino-1,6-diphenylhexane] are 0.015 µM, 94.6% and 33000 nM.
The like results for `Cc1cccc(C)c1/C=C/C(=O)N[C@@H](Cc1ccccc1)[C@@H](O)C[C@H](Cc1ccccc1)NC(=O)[C@H](C(C)C)N1CCCNC1=O` [Example 19E] were, in that order, 0.395 µM, 68.5% and 18000 nM.
As to `Cc1ccnc(C)c1OCC(=O)N[C@@H](Cc1ccccc1)[C@@H](O)C[C@H](Cc1ccccc1)NC(=O)[C@@H](N1CCNC1=O)C(C)(C)C` [Example 14D, (2S,3S,5S)-2-(2,4-Dimethyl-pyridin-3-oxy-acetyl) amino-3-hydroxy-5-(2S-(1-imidazolidin-2-onyl)-3,3-dimethylbutanoyl) amino-1,6-diphenylhexane], the IC50 in the data set on HIVIIIB is 0.053 µM. The inhibition at 0.0005 µM at HIV protease is 52.7%. For the same molecule, the CC50 at 120 h in data set [1] is more than 100000 nM.
